Laboratory results: PMC7279487, “Dual Target Ligands with 4-tert-Butylphenoxy Scaffold as Histamine H3 Receptor Antagonists and Monoamine Oxidase B Inhibitors” (International Journal of Molecular Sciences, 2020)
Counter-ions that a name gives are not always drawn.

How the values were obtained:
[1] = molecular target: T1, human histamine H3 receptor (hH3R) (Homo sapiens, UniProt Q9Y5N1); assay: radioligand displacement binding assay, [3H]Nα-methylhistamine, HEK293 cells stably expressing hH3R; conditions: HEK293 cells stably expressing human H3R, mean (95% CI)
T1 construct: expressed in transfected cells
Protocol: [^3H]N^α-methylhistamine was used as a radioligand.
The radioligand displacement binding assay was carried out in HEK-293 cells stably expressing the recombinant hH3R as described by Kottke et al. with slight modifications. […] Obtained data from at least three experiments (in at least duplicates) were analyzed with GraphPad Prism 6.1 (San Diego, CA, USA) using nonlinear regression (one-site competition on logarithmic scale), and Ki values were transformed from IC50 according to Cheng-Prusoff. Statistical analysis was performed on −log Ki values.

hMAO B = molecular target: T2, hMAO B (Homo sapiens, UniProt P27338); assay: hMAO B inhibition, fluorometric Amplex Red MAO assay; format: biochemical; conditions: percent of inhibition at 1 μM; mean of two independent experiments; read-out: MAO B (%Inh.)
T2 construct: purchased Sigma Aldrich M7441
T2 sequence (P27338 1-520): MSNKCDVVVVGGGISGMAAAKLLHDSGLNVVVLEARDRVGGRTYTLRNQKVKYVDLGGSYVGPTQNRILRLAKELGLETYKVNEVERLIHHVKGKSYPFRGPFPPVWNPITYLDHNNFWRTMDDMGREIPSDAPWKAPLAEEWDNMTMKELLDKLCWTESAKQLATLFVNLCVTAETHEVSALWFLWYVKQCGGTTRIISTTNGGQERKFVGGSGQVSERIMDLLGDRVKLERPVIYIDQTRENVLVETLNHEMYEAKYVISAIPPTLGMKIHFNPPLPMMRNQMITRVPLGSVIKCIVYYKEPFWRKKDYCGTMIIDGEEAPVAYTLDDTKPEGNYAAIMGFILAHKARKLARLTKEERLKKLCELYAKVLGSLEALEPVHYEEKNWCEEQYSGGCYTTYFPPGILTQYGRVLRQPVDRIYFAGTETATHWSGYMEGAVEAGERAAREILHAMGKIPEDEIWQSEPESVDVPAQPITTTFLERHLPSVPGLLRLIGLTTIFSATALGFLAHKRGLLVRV

[2] = test system: haloperidol-induced catalepsy; assay: haloperidol-induced catalepsy, bar test; format: in vivo, Wistar rats; conditions: mean ± SEM (n = 6)
Protocol: (§1) Haloperidol (dopamine D2 antagonist)-induced catalepsy in rodents is a popular model for screening of antiparkinsonian activity of compounds [21]. Caused symptoms in animals are similar to the inability of PD patients to initiate movements. […] The reversal of catalepsy was tested for 6 min (3 times in 3 min intervals) after 1 h of haloperidol administration. As the reference compound was used MSX-3, the adenosine A2A receptor antagonist with confirmed ability to reverse catalepsy mediated by D1 and D2 receptor antagonists.
Haloperidol-induced catalepsy was not reduced by DL-76 administrated at a dose of 25 mg/kg body weight (Table 3). After administration of DL-76 at a dose of 50 mg/kg body weight, low antiparkinsonian activity in the bar test was observed. […] This effect was weaker than the anti-Parkisonian activity of MSX-3.
(§2) The experiments were carried out on male rats Wistar (180–220 g). Animals were housed in plastic cages in room at a constant temperature of 20 ± 2 °C with natural light–dark cycles. The animals had free access to standard pellet diet and water and were used after a minimum of 3 days of acclimatization to the housing conditions. Control and experimental groups consisted of 6 animals each. All experimental procedures were performed according to the European Union Directive of 22 September 2010 (2010/63/EU) and Polish legislation concerning animal care and use and was approved by the Local Ethics Committee for Experiments on Animals in Kraków, Poland (Resolution No. 70/2014, approval date: 20 May 2014). The examined compound was administered as the suspension in 0.5% methylcellulose in constant volume of 10 mL/kg.
(§3) Antiparkinsonian activity in catalepsy tests was performed as described in [28]. Haloperidol was administered s.c. at a dose of 0.63 mg/kg, which in 100% of control animals caused catalepsy. Tested compounds were administered i.p. at the doses 50 and 25 mg/kg body weight, 5 min after haloperidol injection. After 60 min from the injection of haloperidol, to assess the occurrence of catalepsy, the animals were placed in a forced position and the time they remained in this position was measured. Two tests were performed to determine the antiparkinsonian activity: crossed leg position test and bar test. In the first test, the animals were put on the hind paws behind the front (forced position); in the second, the animals were supported on a wooden block (the front paws were placed on a block suspended 10 cm above the ground). Then, the time that the animals remain is measured in a forced position (time was measured to a maximum of 60 s). Observation was carried out 3 times in 3-min intervals. The shortening of the time of catalepsy to the control group was adopted for the antiparkinsonian activity.

[3] = test system: haloperidol-induced catalepsy; assay: haloperidol-induced catalepsy, crossed-leg position test; format: in vivo, Wistar rats; conditions: mean ± SEM (n = 6)
Protocol: as §1, §2, §3

T1 sequence (Q9Y5N1 whole entry): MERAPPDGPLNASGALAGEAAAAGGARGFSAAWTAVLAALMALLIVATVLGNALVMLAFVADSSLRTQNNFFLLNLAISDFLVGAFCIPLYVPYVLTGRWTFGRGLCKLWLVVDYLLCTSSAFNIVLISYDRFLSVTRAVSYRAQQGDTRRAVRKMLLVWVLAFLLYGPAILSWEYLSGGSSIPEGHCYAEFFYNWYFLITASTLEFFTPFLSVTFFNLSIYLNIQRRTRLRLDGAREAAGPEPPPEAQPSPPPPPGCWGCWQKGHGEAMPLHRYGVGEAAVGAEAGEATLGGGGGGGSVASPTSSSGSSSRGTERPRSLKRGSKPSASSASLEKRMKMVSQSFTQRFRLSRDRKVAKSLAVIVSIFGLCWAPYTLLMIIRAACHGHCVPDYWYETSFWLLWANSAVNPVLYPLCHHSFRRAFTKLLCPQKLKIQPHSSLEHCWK

CC(C)(C)c1ccc(OCCCCCN2CCCCC2)cc1.O=C(O)C(=O)O [Compound 7, 1-(5-(4-tert-Butylphenoxy)pentyl)piperidine hydrogen oxalate]
melting point: 170 to 172 °C
Ki [1]: 252 nM
inhibition at 1 µM (hMAO B): 28%

CC(C)(C)c1ccc(OCCCCCCN2CCCCC2)cc1.O=C(O)C(=O)O [Compound 8, 1-(6-(4-tert-Butylphenoxy)hexyl)piperidine hydrogen oxalate]
melting point: 156 to 158 °C
Ki [1]: 225 nM
inhibition at 1 µM (hMAO B): 13%

CC1CCCCN1CCCCCOc1ccc(C(C)(C)C)cc1.O=C(O)C(=O)O (stereo not drawn) [Compound 11, 1-(5-(4-tert-Butylphenoxy)pentyl)-2-methylpiperidine hydrogen oxalate]
melting point: 96 to 99 °C
Ki [1]: 1560 nM
inhibition at 1 µM (hMAO B): 36%

CC1CCCN(CCCCOc2ccc(C(C)(C)C)cc2)C1.O=C(O)C(=O)O (stereo not drawn) [Compound 13, 1-(4-(4-tert-Butylphenoxy)butyl)-3-methylpiperidine hydrogen oxalate]
melting point: 148 to 150 °C
Ki [1]: 102 nM

CC1CCCN(CCCCCOc2ccc(C(C)(C)C)cc2)C1.O=C(O)C(=O)O (stereo not drawn) [Compound 14, 1-(5-(4-tert-Butylphenoxy)pentyl)-3-methylpiperidine hydrogen oxalate]
melting point: 179 to 181 °C
Ki [1]: 114 nM
inhibition at 1 µM (hMAO B): 33%

CC1CCCN(CCCCCCOc2ccc(C(C)(C)C)cc2)C1.O=C(O)C(=O)O (stereo not drawn) [Compound 15, 1-(6-(4-tert-Butylphenoxy)hexyl)-3-methylpiperidine hydrogen oxalate]
melting point: 140 to 142 °C
Ki [1]: 351 nM
inhibition at 1 µM (hMAO B): 13%

CC1(C)CCCN(CCCCOc2ccc(C(C)(C)C)cc2)C1.O=C(O)C(=O)O [Compound 17, 1-(4-(4-tert-Butylphenoxy)butyl)-3,3-dimethylpiperidine hydrogen oxalate]
melting point: 140 to 142 °C
Ki [1]: 3440 nM
inhibition at 1 µM (hMAO B): 38%

CC1CC(C)CN(CCCOc2ccc(C(C)(C)C)cc2)C1.O=C(O)C(=O)O (stereo not drawn) [Compound 20, 1-(3-(4-tert-Butylphenoxy)propyl)-3,5-dimethylpiperidine hydrogen oxalate]
melting point: 143 to 145 °C
Ki [1]: 341 nM
inhibition at 1 µM (hMAO B): 37%

CC1CC(C)CN(CCCCOc2ccc(C(C)(C)C)cc2)C1.O=C(O)C(=O)O (stereo not drawn) [Compound 21, 1-(4-(4-tert-Butylphenoxy)butyl)-3,5-dimethylpiperidine hydrogen oxalate]
melting point: 170 to 172 °C
Ki [1]: 1380 nM
inhibition at 1 µM (hMAO B): 35%

CC1CC(C)CN(CCCCCOc2ccc(C(C)(C)C)cc2)C1.O=C(O)C(=O)O (stereo not drawn) [Compound 22, 1-(5-(4-tert-Butylphenoxy)pentyl)-3,5-dimethylpiperidine hydrogen oxalate]
melting point: 175 to 178 °C
Ki [1]: 2240 nM
inhibition at 1 µM (hMAO B): 41%

CC1CC(C)CN(CCCCCCOc2ccc(C(C)(C)C)cc2)C1.O=C(O)C(=O)O (stereo not drawn) [Compound 23, 1-(6-(4-tert-Butylphenoxy)hexyl)-3,5-dimethylpiperidine hydrogen oxalate]
melting point: 143 to 145 °C
Ki [1]: 2080 nM
inhibition at 1 µM (hMAO B): 34%

CC1CCN(CCCOc2ccc(C(C)(C)C)cc2)CC1.O=C(O)C(=O)O [Compound 24, 1-(3-(4-tert-Butylphenoxy)propyl)-4-methylpiperidine hydrogen oxalate]
melting point: 158 to 160 °C
Ki [1]: 316 nM
inhibition at 1 µM (hMAO B): 37%

CC1CCN(CCCCOc2ccc(C(C)(C)C)cc2)CC1 [Compound 25, 1-(4-(4-tert-Butylphenoxy)butyl)-4-methylpiperidine hydrogen oxalate]
Ki [1]: 400 nM
inhibition at 1 µM (hMAO B): 33%

CC1CCN(CCCCCOc2ccc(C(C)(C)C)cc2)CC1.O=C(O)C(=O)O [Compound 26, 1-(5-(4-tert-Butylphenoxy)pentyl)-4-methylpiperidine hydrogen oxalate]
melting point: 167 to 170 °C
Ki [1]: 531 nM
inhibition at 1 µM (hMAO B): 39%

CC1CCN(CCCCCCOc2ccc(C(C)(C)C)cc2)CC1.O=C(O)C(=O)O [Compound 27, 1-(6-(4-tert-Butylphenoxy)hexyl)-4-methylpiperidine hydrogen oxalate]
melting point: 136 to 139 °C
Ki [1]: 1350 nM
inhibition at 1 µM (hMAO B): 10%

CC(C)(C)c1ccc(OCCCCCN2CCCCCC2)cc1.O=C(O)C(=O)O [Compound 30, 1-(5-(4-tert-Butylphenoxy)pentyl)-azepane hydrogen oxalate]
melting point: 151 to 153 °C
Ki [1]: 324 nM
inhibition at 1 µM (hMAO B): 18%

CC(C)(C)c1ccc(OCCCCCCN2CCCCCC2)cc1.O=C(O)C(=O)O [Compound 31, 1-(6-(4-tert-Butylphenoxy)hexyl)-azepane hydrogen oxalate]
melting point: 130 to 132 °C
inhibition at 1 µM (hMAO B): 23%

C#CCn1c(=O)c2c(nc(/C=C/c3cccc(OC)c3)n2C)n(CCCOP(=O)(O)O)c1=O.[Na].[Na] [MSX-3, (E)-phosphoric acid mono-[3-[8-[2-(3-methoxyphenyl)vinyl]-7-methyl-2,6-dioxo-1-prop-2-ynyl-1,2,6,7-tetrahydro-purin-3-yl]propyl] ester disodium salt, reference compound]
Times of Observation of Catalepsy (s), 0 min ([2]; 25 mg/kg i.p.): 0 ± 0 s
Times of Observation of Catalepsy (s), 3 min ([2]; 25 mg/kg i.p.): 0 ± 0 s
Times of Observation of Catalepsy (s), 6 min ([2]; 25 mg/kg i.p.): 0 ± 0 s
Times of Observation of Catalepsy (s), 0 min ([2]; 50 mg/kg i.p.): 0 ± 0 s
Times of Observation of Catalepsy (s), 3 min ([2]; 50 mg/kg i.p.): 0 ± 0 s
Times of Observation of Catalepsy (s), 6 min ([2]; 50 mg/kg i.p.): 0 ± 0 s
Times of Observation of Catalepsy (s), 0 min ([3]; 25 mg/kg): 0 ± 0 s
Times of Observation of Catalepsy (s), 3 min ([3]; 25 mg/kg): 0 ± 0 s
Times of Observation of Catalepsy (s), 6 min ([3]; 25 mg/kg): 0 ± 0 s
Times of Observation of Catalepsy (s), 0 min ([3]; 50 mg/kg): 0 ± 0 s
Times of Observation of Catalepsy (s), 3 min ([3]; 50 mg/kg): 0 ± 0 s
Times of Observation of Catalepsy (s), 6 min ([3]; 50 mg/kg): 0 ± 0 s
